From US9545386B2, “Methods of treating infectious diseases” (SLIPPERY ROCK UNIVERSITY FOUNDATION, INC., priority 2007, dated 2017)
Values after ≈ are worked out from the molar mass of the structure shown.

Tests used:
[1] = test system: Penicillium marneffei; assay: Antifungal MIC/MFC, 96 well broth dilution; format: cell-based; settings: Talaromyces marneffei, P. marneffei, 48-96 hr in vitro
Description: (§1) Bacterial cultures were obtained from the American Type Culture Collection (ATCC), except for Streptococcus pyogenes, which was started from a Difco Bactrol disc. The other organisms were Enterococcus faecalis, Staphylococcus aureus, Escherichia coli, Salmonella typhimurium and Pseudomonas aeruginosa. Cultures were grown in Luria-Bertani (LB) broth. Fungi were obtained from Carolina Biological Supply Company (Aspergillus niger, Candida albicans and Cryptococcus neoformans); Presque Isle Cultures, Erie Pa. (Microsporum gypseum); or from ATCC (Penicillium marneffei). Fungal cultures were maintained in Sabouraud dextrose broth (SDB) or agar (SDA). All media components came from Difco.
(§2) Tests were done in flat-bottomed 96 well cell culture plates (Costar). All samples were done in duplicate. Eryngial was suspended in culture medium plus 0.04% Triton-X to make a 2% (20 mg/ml) suspension, which was passed through a 0.22 μm filter to make a uniform emulsion. Serial doubling dilutions of eryngial in culture medium plus 0.04% Triton-X were prepared, and 75 μl was added to each well. 75 μl of cell or spore suspensions in culture medium also were added to each well. The final concentration of Triton-X was 0.02%, and the final concentration of eryngial was 1% (10 mg/ml) at the highest concentration tested.
(§3) Dimethyl sulfoxide (DMSO) also was used as a solvent for eryngial. A solution of 12.5% eryngial in DMSO was the initial solution. Doubling dilutions were carried out in DMSO. The DMSO-eryngial solutions were diluted 100-fold into growth medium, resulting in a final concentration of 1% DMSO, and 0.125% (1,250 μg/ml) eryngial as the highest concentration tested.
(§4) The yeast form fungi, Candida albicans and Cryptococcus neoformans, were grown overnight in SDB. Cell density was determined by counting in a hemacytometer. Cells were diluted in fresh SDB to a density of 10^4/ml, and 75 μl, or 7.5×10^2 cells, was added to each well. The filamentous form fungi, Aspergillus niger, Microsporum gypseum and Penicillium marneffei, were grown on SDA until spores formed. The surface of the culture was rinsed vigorously with sterile distilled water to make a spore suspension, which was counted with a hemacytometer. The spores were diluted into SDB at 10^4/ml, and 75 μl, or 7.5×10^2 spores, were added to each well. The 96 well plates were incubated at room temperature in a humidified chamber for up to 96 hr, and culture growth was monitored microscopically. Growth was documented by photomicrographs at 24 hr intervals, and by determining OD630 in the microplate reader as for the bacterial cultures.
(§5) To determine whether eryngial was merely inhibiting growth of the bacteria and fungi, or whether it also was having a killing effect, the minimum bactericidal concentrations (MBC, μg/ml) or minimum fungicidal concentrations (MFC, μg/ml) were determined. This was done by removing a 50 μl sample from a well after 24 hr (bacteria) or 96 hr (fungi) and diluting the samples in 5 ml of fresh culture medium. These tubes then were incubated at the appropriate temperature for 24-96 hr and observed for any signs of growth.

[2] = test system: Cryptococcus neoformans; assay: Antifungal MIC/MFC, 96 well broth dilution; format: cell-based; settings: C. neoformans, 48-96 hr in vitro
Description: as §1, §2, §3, §4, §5

[3] = test system: Escherichia coli; assay: Antibacterial MIC, 96 well broth dilution; format: cell-based; settings: E. coli (gram-negative), 24 hr, 0.02% Triton X-100, highest concentration tested 10 mg/ml
Description: as §1, §2
(§6) Overnight bacterial cultures in LB medium were diluted into fresh LB to an OD600 of 0.02 to 0.03, and then diluted 1000-fold again in LB. […] Blank wells for each concentration of eryngial were prepared with plain culture medium added.
(§7) The 96 well plates were incubated at 37° for 24 hr (in a candle jar for S. pyogenes), and the OD630 was read on an EL800 universal microplate reader (Bio-Tek Instruments). Readings from duplicate wells were averaged, and readings from duplicate blank wells for each concentration of eryngial were subtracted to generate the final values. The minimum inhibitory concentration (MIC, μg/ml) was defined as the well with the highest dilution of eryngial in which no growth was observed.

[4] = test system: Salmonella typhimurium; assay: Antibacterial MIC, 96 well broth dilution; format: cell-based; settings: S. typhimurium (gram-negative), 24 hr, 0.02% Triton X-100, highest concentration tested 10 mg/ml
Description: as §1, §2, §6, §7

[5] = test system: Pseudomonas aeruginosa; assay: Antibacterial MIC, 96 well broth dilution; format: cell-based; settings: P. aeruginosa (gram-negative), 24 hr, 0.02% Triton X-100, highest concentration tested 10 mg/ml
Description: as §1, §2, §6, §7

[6] = test system: T. avium trypomastigotes; assay: Short-term behavioral study (swimming behavior and maneuverability); format: cell-based, Trypanosoma avium; settings: 75 μl eryngial (1%) and Triton X-100 (0.04%) added to 75 μl T. avium; observed at 15-minute intervals for 1 hr
Description: A short-term behavioral study also was conducted by adding 75 μl of eryngial (1%) and Triton X-100 (0.04%) to 75 μl of L.N.S. with T. avium (1.0×10^5 trypomastigotes/ml). The swimming behavior and maneuverability of the organisms were observed microscopically in triplicate samples at 15-minute intervals for 1 hr. This was recorded with a digital video camera.

[7] = test system: S. stercoralis L3 larvae; settings: after 120 hr of incubation, Forbes et al. (unpublished); cited from earlier work

CCCCCCCCC/C=C/C=O [Eryngial, trans-2-dodecenal]
MIC [1]: 39 µg/mL (≈ 214 µM)
MBC ([1]; table title says MFCs): 39 µg/mL (≈ 214 µM)
MIC [2]: 78 µg/mL (≈ 428 µM)
MBC ([2]; table title says MFCs): 78 µg/mL (≈ 428 µM)
inhibited by eryngial [3]: none
inhibited by eryngial [4]: none
inhibited by eryngial [5]: none
swimming behavior and maneuverability of trypomastigotes [6]: movement was completely stopped
increase in effectiveness over ivermectin based on time (hr) taken to kill 50% (LT50) [7]: 7.1 fold
